Assay results as given in patent publication US12240862B2, “Inhibitors of peptidylarginine deiminases” (Gilead Sciences, Inc., priority 2020, dated 2025).

Target: T1, human PAD4 (Homo sapiens, UniProt Q9UM07)
T1 construct: human PAD4 (NM_012387), A2P663, was PCR amplified; His-SUMO (N, cleaved yes); made in house; host or cells: E. coli BL21(DE3)
Test: In vitro PAD4 BAEE biochemical assay
Conditions: human PAD4, BAEE substrate; 5 nM PAD4, 2 mM calcium chloride, 3 mM BAEE; geometric mean of multiple experiments
Procedure: The PCR product was ligated into linearized pET-SUMO vector (Invitrogen, Carlsbad, CA), which is part of the Champion™ pET SUMO Protein Expression System. After sequence verification for the correct orientation, the pET-SUMO-hPAD4 expression plasmid was transformed into BL21(DE3) cells.
E. Coli BL21(DE3) cells were inoculated in LB medium with kanamycin at 37° C. until A600 nm reached about 0.5. Protein expression was induced by addition of 0.5 mM IPTG (final) and continued overnight at 16° C. at 220 rpm.
Cells were harvested by centrifugation at 5000 rpm for 10 minutes at 4° C. The pellet was resuspended in 300 ml lysis buffer (20 mM Tris-HCl, pH 8.0, 1 mM EDTA, 500 mM NaCl, 1 mM (tris(2-carboxyethyl)phosphine) (TCEP), 10% glycerol, and 1% Triton X100 and EDTA free protease inhibitor) and lysed by 3× passage through a microfluidizer (Microfluidics, Newton, MA) at 18,000 psi. The cell lysate was clarified by centrifugation at 30,000 rpm for 60 minutes at 4° C. […] Bound protein was eluted with a 0-100% linear gradient of 100 mL Ni-B buffer (Ni A buffer+0.5 M Imidazole).
The protein was then reloaded onto a Ni—HP column for a reverse purification step and recovered in flow through fraction. The protein with His-Sumo tag removed was then polished using a 16/60 Superdex-200 gel filtration column with gel filtration buffer (20 mM Tris pH 8.0, NaCl 400 mM and 1 mM TCEP). The fractions containing the protein were pulled and frozen at −80° C.
The enzymatic activity of human PAD4 was monitored in a biochemical assay in the presence or absence of compounds using the small peptidyl arginine mimic BAEE (Na-Benzoyl-L-arginine ethyl ester hydrochloride) as substrate. PAD4 activity led to deamination of BAEE and release of ammonia. Levels of ammonia were monitored by using an amine coupling reaction and were indicative of PAD4 enzymatic activity.
One hundred nanoliters of test compounds dissolved in DMSO at various concentrations were dispensed into a 384-well black OptiPlate using a Labcyte Echo instrument. Ten microliters of a solution of recombinant PAD4 and calcium chloride diluted in PAD4 assay buffer (50 mM MOPS [3-(N-morpholino) propanesulfonic acid], pH 7.6; 50 mM sodium chloride; 0.05% Tween-20; 2 mM dithiothreitol) was added to the compound-containing plate and was incubated for 30 minutes at 25° C. Ten microliters of a solution of BAEE (Sigma-Aldrich #B4500) diluted in PAD4 assay buffer was then added to start the reaction. Final concentrations were 5 nM PAD4, 2 mM calcium chloride, and 3 mM BAEE. The reaction mixture was incubated at 25° C. for 2 hours and was stopped with the addition of 10 microliters of a solution of 75 mM EDTA (Ethylenediaminetetraacetic acid) in PAD4 assay buffer. Thirty microliters of detection solution (5 mM o-phthalaldehyde, 50 mM MOPS [3-(N-morpholino) propanesulfonic acid], pH 7.6; 50 mM sodium chloride; 0.05% Tween-20; 5 mM dithiothreitol) was then added and the reaction was incubated for 1 hour at 25° C.

T1 sequence (Q9UM07 2-663): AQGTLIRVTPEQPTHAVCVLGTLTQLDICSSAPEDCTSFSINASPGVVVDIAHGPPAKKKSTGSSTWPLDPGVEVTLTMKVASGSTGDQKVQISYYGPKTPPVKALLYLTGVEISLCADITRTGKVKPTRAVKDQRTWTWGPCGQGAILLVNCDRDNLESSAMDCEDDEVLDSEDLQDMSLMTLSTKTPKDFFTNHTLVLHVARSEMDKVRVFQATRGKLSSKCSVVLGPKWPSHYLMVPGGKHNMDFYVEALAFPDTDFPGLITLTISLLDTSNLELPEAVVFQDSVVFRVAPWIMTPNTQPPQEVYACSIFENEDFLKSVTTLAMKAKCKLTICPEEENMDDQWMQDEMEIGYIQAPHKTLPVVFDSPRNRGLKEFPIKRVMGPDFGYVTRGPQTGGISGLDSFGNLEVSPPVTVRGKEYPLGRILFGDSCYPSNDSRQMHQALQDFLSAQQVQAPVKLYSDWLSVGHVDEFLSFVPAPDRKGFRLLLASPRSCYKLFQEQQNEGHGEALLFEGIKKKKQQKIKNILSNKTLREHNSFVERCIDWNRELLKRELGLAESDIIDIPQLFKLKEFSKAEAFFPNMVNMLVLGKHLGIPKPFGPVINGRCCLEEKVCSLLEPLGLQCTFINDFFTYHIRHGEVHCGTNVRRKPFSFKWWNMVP

Row | SMILES | IC50
1 | COc1cc(C(=O)N2C[C@@H]3CC[C@H]2CN3)cc2nc(-c3cc4ccc([C@@H](C)NC(=O)C56CC(F)(C5)C6)nc4n3CC3CC3)c(C)n12 [Example 3, ~{N}-[(1~{R})-1-[1-(cyclopropylmethyl)-2-[7-[(1~{S},4~{S})-2,5-diazabicyclo[2.2.2]octane-2-carbonyl]-5-methoxy-3-methylimidazo[1,2-a]pyridin-2-yl]pyrrolo [2,3-b]pyridin-6-yl]ethyl]-3-fluorobicyclo [1.1.1] pentane-1-carboxamide] | 11000 nM
2 | COc1cc(C(=O)N2CC[C@@H](OC)[C@@H](N)C2)cc2nc(-c3cc4ccc(N(C(F)F)S(C)(=O)=O)nc4n3CC3CC3)c(C)n12 [Example 335, ~{N}-[2-[7-[(3~{S}, 4~{R})-3-amino-4-methoxypiperidine-1-carbonyl]-5-methoxy-3-methylimidazo [1,2-a]pyridin-2-yl]-1-(cyclopropylmethyl)pyrrolo [2,3-b]pyridin-6-yl]-~{N}-(difluoromethyl) methanesulfonamide] | 178 nM
3 | CCc1ccc2cc(-c3nc4cc(C(=O)N5CC6(N)CCC5CC6)cc(OC)n4c3C)n(CC3CC3)c2n1 [Example 593, (4-amino-2-azabicyclo[2.2.2]octan-2-yl)-[2-[1-(cyclopropylmethyl)-6-ethylpyrrolo[2,3-b]pyridin-2-yl]-5-methoxy-3-methylimidazo[1,2-a]pyridin-7-yl]methanone] | 1900 nM
4 | COc1cc(C(=O)N2[C@H]3CC(C)[C@@H]2[C@H](N)C3)cc2nc(-c3cc4ccc(N(C(F)F)S(C)(=O)=O)nc4n3CC3CC3)c(C)n12 (stereo partly drawn) [Example 351, N-[2-[7-[(1R,2R,4S)-2-amino-6-methyl-7-azabicyclo[2.2.1]heptane-7-carbonyl]-5-methoxy-3-methyl-imidazo[1,2-a]pyridin-2-yl]-1-(cyclopropylmethyl)pyrrolo [2,3-b]pyridin-6-yl]-N-(difluoromethyl) methanesulfonamide] | 6510 nM
5 | COc1cc(C(=O)N2CCC[C@@H](N)C2)cc2nc(-c3cc4ccc(C(C)CC(=O)N(C)C)nc4n3CC3CC3)c(C)n12 (stereo partly shown) [Example 536, 3-[2-[7-[(3~{R})-3-aminopiperidine-1-carbonyl]-5-methoxy-3-methylimidazo[1,2-a]pyridin-2-yl]-1-(cyclopropylmethyl)pyrrolo[2,3-b]pyridin-6-yl]-~{N},~{N}-dimethylbutanamide] | 128 nM
6 | CCOC(=O)CC(C)c1ccc2cc(-c3nc4cc(C(=O)N5CCC[C@@H](N)C5)cc(OC)n4c3C)n(CC3CC3)c2n1 (stereo partly shown) [Example 598, ethyl 3-[2-[7-[(3~{R})-3-aminopiperidine-1-carbonyl]-5-methoxy-3-methylimidazo [1,2-a]pyridin-2-yl]-1-(cyclopropylmethyl)pyrrolo [2,3-b]pyridin-6-yl] butanoate] | 312 nM
7 | COc1cc(C(=O)NC[C@@H]2CCCCN2)cc2nc(-c3cc4ccc(N(C(F)F)S(C)(=O)=O)nc4n3CC3CC3)c(C)n12 [Example 294, 2-[1-(cyclopropylmethyl)-6-[difluoromethyl (methylsulfonyl)amino]pyrrolo[2,3-b]pyridin-2-yl]-5-methoxy-3-methyl-~ {N}-[[(2~{S})-piperidin-2-yl]methyl]imidazo[1,2-a]pyridine-7-carboxamide] | 38400 nM

Further lines, results first:

Row | IC50 | SMILES
8 | 123 nM | CC[C@@](C)(O)c1ccc2cc(-c3nc4cc(C(=O)N5[C@H]6CC[C@@H]5[C@H](N)C6)cc(OC)n4c3C)n(CC3CC3)c2n1 [Example 566, [(1~{R},2~{R},4~{S})-2-amino-7-azabicyclo [2.2.1]heptan-7-yl]-[2-[1-(cyclopropylmethyl)-6-[(2~{R})-2-hydroxybutan-2-yl]pyrrolo[2,3-b]pyridin-2-yl]-5-methoxy-3-methylimidazo [1,2-a]pyridin-7-yl]methanone]
9 | 114 nM | COc1cc(C(=O)N2[C@H]3CC[C@@H]2[C@H](N)C3)cc2nc(-c3cc4ccc(C5CCN(C)C(=O)C5)nc4n3CC3CC3)c(C)n12 (stereo partly shown) [Example 560, 4-[2-[7-[(1~{R},2~{R}, 4~{S})-2-amino-7-azabicyclo[2.2.1]heptane-7-carbonyl]-5-methoxy-3-methylimidazo[1,2-a]pyridin-2-yl]-1-(cyclopropylmethyl)pyrrolo [2,3-b]pyridin-6-yl]-1-methylpiperidin-2-one]
10 | 346 nM | CCc1ccc2cc(-c3nc4cc(C(=O)N5[C@H]6CC[C@@H]5[C@H](N)C6)cc(OC)n4c3C3CC3)n(CC3CC3)c2n1 [Example 578, [(1~{R},2~{R},4~{S})-2-amino-7-azabicyclo [2.2.1]heptan-7-yl]-[3-cyclopropyl-2-[1-(cyclopropylmethyl)-6-ethylpyrrolo[2,3-b]pyridin-2-yl]-5-methoxyimidazo [1,2-a]pyridin-7-yl]methanone]
11 | 83 nM | COc1cc(C(=O)N2[C@H]3CC[C@@H]2[C@H](N)C3)cc2nc(-c3cc4ccc([C@@H](C)NC(=O)CC5(OC)CCC5)nc4n3CC3CC3)c(C)n12 [Example 32, ~{N}-[(1~{R})-1-[2-[7-[(1~{R},2~{R},4~{S})-2-amino-7-azabicyclo [2.2.1]heptane-7-carbonyl]-5-methoxy-3-methylimidazo[1,2-a]pyridin-2-yl]-1-(cyclopropylmethyl)pyrrolo[2,3-b]pyridin-6-yl]ethyl]-2-(1-methoxycyclobutyl) acetamide]
12 | 41.3 nM | COc1cc(C(=O)N2[C@H]3CC[C@@H]2[C@H](N)C3)cc2nc(-c3cc4ccc([C@@H](C)NC(=O)N5CC(O)(C(F)(F)F)C5)nc4n3CC3CC3)c(C)n12 [Example 197, ~{N}-[(1~{R})-1-[2-[7-[(1~{R},2~{R},4~{S})-2-amino-7-azabicyclo[2.2.1]heptane-7-carbonyl]-5-methoxy-3-methylimidazo [1,2-a]pyridin-2-yl]-1-(cyclopropylmethyl)pyrrolo [2,3-b]pyridin-6-yl]ethyl]-3-hydroxy-3-(trifluoromethyl)azetidine-1-carboxamide]
13 | 68.5 nM | COc1cc(C(=O)N2[C@H]3CC[C@@H]2[C@H](N)C3)cc2nc(-c3cc4ccc([C@@H](C)NC(=O)C56CC(F)(C5)C6)nc4n3CC3CC3)c(C)n12 [Example 169, N—((R)-1-(2-(7-((1R,2R,4S)-2-amino-7-azabicyclo[2.2.1]heptane-7-carbonyl)-5-methoxy-3-methylimidazo[1,2-a]pyridin-2-yl)-1-(cyclopropylmethyl)-1H-pyrrolo[2,3-b]pyridin-6-yl)ethyl)-3-fluorobicyclo[1.1.1]pentane-1-carboxamide]
14 | 2730 nM | COc1cc(C(=O)N2C[C@@H]3CC[C@H]2[C@@H](N)C3)cc2nc(-c3cc4ccc(N(C(F)F)S(C)(=O)=O)nc4n3CC3CC3)c(C)n12 [Example 375, ~{N}-[2-[7-[(1~{S},4~{R}, 6~{S})-6-amino-2-azabicyclo[2.2.2]octane-2-carbonyl]-5-methoxy-3-methylimidazo[1,2-a]pyridin-2-yl]-1-(cyclopropylmethyl)pyrrolo [2,3-b]pyridin-6-yl]-~{N}-(difluoromethyl) methanesulfonamide]
15 | 156 nM | COc1cc(C(=O)N2[C@H]3CC[C@@H]2[C@H](N)C3)cc2nc(-c3cc4ccc(C(C)n5cncn5)nc4n3CC3CC3)c(C)n12 (stereo partly shown) [Example 546, [(1~{R},2~{R},4~{S})-2-amino-7-azabicyclo [2.2.1]heptan-7-yl]-[2-[1-(cyclopropylmethyl)-6-[1-(1,2,4-triazol-1-yl)ethyl]pyrrolo[2,3-b]pyridin-2-yl]-5-methoxy-3-methylimidazo[1,2-a]pyridin-7-yl]methanone]
16 | 153 nM | CCc1ccc2cc(-c3nc4cc(C(=O)N5[C@H]6CC[C@@H]5[C@H](N)C6)cc(OC)n4c3N)n(CC3CC3)c2n1 [Example 552, [(1~{R},2~{R},4~{S})-2-amino-7-azabicyclo [2.2.1]heptan-7-yl]-[3-amino-2-[1-(cyclopropylmethyl)-6-ethylpyrrolo[2,3-b]pyridin-2-yl]-5-methoxyimidazo [1,2-a]pyridin-7-yl]methanone]
